# Where two headings read alike, the source gives them in different places.
# System: adult subjects with TRD
# Settings: for Day 17 responders who maintained response status up to Day 35, % / Day 17 responders who maintained response status up to Day 35, number: esketamine subjects per Day 1 randomization
# [1] = Met carriers, DAY 02, randomized to esketamine Day 1
# [2] = Met carriers, DAY 07, randomized to esketamine Day 1
# [3] = Met carriers, DAY 07, randomized to placebo Day 1, esketamine from day 4 onward
# [4] = Met carriers, DAY 17, randomized to esketamine Day 1
# [5] = Met carriers, DAY 17, randomized to placebo Day 1, esketamine from day 4 onward
# [6] = Met carriers, DAY 35, randomized to esketamine Day 1
# [7] = Met carriers, DAY 35, randomized to placebo Day 1, esketamine from day 4 onward
# [8] = Met carriers, Day 0 after Day 17, all responders (Day 17)
# [9] = Met carriers, Day 0 after Day 17, esketamine responders (Day 17) per Day 1 randomization
# [10] = Met carriers, Day 4 after Day 17, all responders (Day 17)
# [11] = Met carriers, Day 4 after Day 17, esketamine responders (Day 17) per Day 1 randomization
# [12] = Met carriers, Day 18 after Day 17, all responders (Day 17)
# [13] = Met carriers, Day 18 after Day 17, esketamine responders (Day 17) per Day 1 randomization
# [14] = Val/Val (of 7), 18 days after last dose
# [15] = Val/Val, DAY 02, randomized to esketamine Day 1
smiles,measurement,setting,value
"CN[C@]1(c2ccccc2Cl)CCCCC1=O.Cl [Esketamine, (S)-2-(2-chlorophenyl)-2-(methylamino)cyclohexanone hydrochloride]","Maintenance of remission, Val/Val vs Met carriers",Day 35,Remission was maintained longer in Val/Val than in Met carriers
same,"Subjects who remained well, number","Met carrier group, at Day 21, from 6",3
same,"Day 17 responders who maintained response status up to Day 35, %",Met carriers (of 6),33.3%
same,"Day 17 responders who maintained response status up to Day 35, number",Met carriers (of 6),2
same,Non-remitters %,[1],88.9%
same,Non-remitters No.,[1],8
same,Non-responders %,[1],88.9%
same,Non-responders No.,[1],8
same,Remitters % (MADRS total score 10),[1],11.1%
same,Remitters No. (MADRS total score 10),[1],1
same,Responders % (MADRS total score reduction >50%),[1],11.1%
same,Responders No. (MADRS total score reduction >50%),[1],1
same,Non-remitters %,[2],77.8%
same,Non-remitters No.,[2],7
same,Non-responders %,[2],66.7%
same,Non-responders No.,[2],6
same,Remitters % (MADRS total score 10),[2],22.2%
same,Remitters No. (MADRS total score 10),[2],2
same,Responders % (MADRS total score reduction >50%),[2],33.3%
same,Responders No. (MADRS total score reduction >50%),[2],3
same,Non-remitters %,[3],100.0%
same,Non-remitters No.,[3],1
same,Non-responders No.,[3],0
same,Remitters No. (MADRS total score 10),[3],0
same,Responders % (MADRS total score reduction >50%),[3],100.0%
same,Responders No. (MADRS total score reduction >50%),[3],1
same,Non-remitters %,[4],77.8%
same,Non-remitters No.,[4],7
same,Non-responders %,[4],33.3%
same,Non-responders No.,[4],3
same,Remitters % (MADRS total score 10),[4],22.2%
same,Remitters No. (MADRS total score 10),[4],2
same,Responders % (MADRS total score reduction >50%),[4],66.7%
same,Responders No. (MADRS total score reduction >50%),[4],6
same,Non-remitters No.,[5],0
same,Non-responders No.,[5],0
same,Remitters % (MADRS total score 10),[5],100.0%
same,Remitters No. (MADRS total score 10),[5],1
same,Responders % (MADRS total score reduction >50%),[5],100.0%
same,Responders No. (MADRS total score reduction >50%),[5],1
same,Non-remitters %,[6],77.8%
same,Non-remitters No.,[6],7
same,Non-responders %,[6],55.6%
same,Non-responders No.,[6],5
same,Remitters % (MADRS total score 10),[6],22.2%
same,Remitters No. (MADRS total score 10),[6],2
same,Responders % (MADRS total score reduction >50%),[6],44.4%
same,Responders No. (MADRS total score reduction >50%),[6],4
same,Non-remitters No.,[7],0
same,Non-responders No.,[7],0
same,Remitters % (MADRS total score 10),[7],100.0%
same,Remitters No. (MADRS total score 10),[7],1
same,Responders % (MADRS total score reduction >50%),[7],100.0%
same,Responders No. (MADRS total score reduction >50%),[7],1
same,"Duration of response, survival function estimate: Failure",[8],0
same,"Duration of response, survival function estimate: Survival",[8],1.0000
same,"Duration of response, survival function estimate: Failure",[9],0
same,"Duration of response, survival function estimate: Survival",[9],1.0000
same,"Duration of response, survival function estimate: Failure",[10],0.4286
same,"Duration of response, survival function estimate: Survival",[10],0.5714
same,"Duration of response, survival function estimate: Failure",[11],0.5000
same,"Duration of response, survival function estimate: Survival",[11],0.5000
same,"Duration of response, survival function estimate: Failure",[12],0.5714
same,"Duration of response, survival function estimate: Survival",[12],0.4286
same,"Duration of response, survival function estimate: Failure",[13],0.6667
same,"Duration of response, survival function estimate: Survival",[13],0.3333
same,"Day 17 responders who maintained response status up to Day 35, %",[14],100%
same,"Day 17 responders who maintained response status up to Day 35, number",[14],7
same,Non-remitters %,[15],37.5%
same,Non-remitters No.,[15],3
same,Non-responders %,[15],25.0%
same,Non-responders No.,[15],2
